The numbers were not newly measured in paper PMC12652113, “Fluorescent Albumin-Binding N-Propylbenzene Indolenine-Based Squaraines as Potential Candidates for Prostate Cancer Photodynamic Therapy Photosensitizers” (International Journal of Molecular Sciences, 2025), which cites them from elsewhere.

SMILES strings stand for the structures.

The conditions of the series: in dimethylformamide; reference value used for the calculation; cited from earlier work.

On to `[Zn+2].c1ccc2c(c1)-c1nc-2nc2[n-]c(nc3nc([n-]c4nc(n1)-c1ccccc1-4)-c1ccccc1-3)c1ccccc21` [Zinc phthalocyanine, zinc phthalocyanine], for which the “fluorescence quantum yield (ΦF) of the reference standard” value is 0.17.
